Measurements published in US20250215039A1, “NUCLEOSIDES FOR TREATING CANCER” (PRIMEFOUR THERAPEUTICS, INC., priority 2022, published 2025).
Like-named read-outs stand apart in the source and are kept apart here.

Test system: cancer cell lines
Assay: Cancer cell proliferation activity (CellTiterGlo, 72 h)
Assay type: cell-based
Details: for IC50: 72 h, read-out: IC50
In short: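 Readout is CellTiterGlo luminescence after 72 h compound exposure (0.1% DMSO final), started one day post-seeding, at 37 °C.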

Q: With Nc1ccn([C@@H]2O[C@H](CO)[C@@H](O)C2(F)F)c(=O)n1 [gemcitabine, reference compound] as the compound, how does the IC50 (5637 cell line (bladder)) read?
A: 1.6 nM

Q: What about the IC50 (CLS439 cell line (bladder)) of the same compound?
A: 3.5 nM

Q: And the IC50 (HS729 cell line (muscle))?
A: 3.6 nM

Q: What about the IC50 (HSS78T cell line) of the same compound?
A: 3.8 nM

Q: And the IC50 (JAR cell line (placenta))?
A: 2 nM

Q: And the IC50 (SKMELS cell line)?
A: 3.2 nM

Q: And the IC50 (Homo sapiens, 22Rv1, 72 h, 22RV1 cell line (prostate))?
A: 13 nM

Q: And the IC50 (Homo sapiens, 786-0, 72 h, 786O cell line (kidney))?
A: 4.1 nM

Q: What about the IC50 (Homo sapiens, A204, 72 h, A204 cell line (muscle)) of the same compound?
A: 0.9 nM

Q: What about the IC50 (Homo sapiens, A549, 72 h, A549 cell line) of the same compound?
A: 3.1 nM

Q: What about the IC50 (Homo sapiens, A673, 72 h, A673 cell line (bone)) of the same compound?
A: 3.5 nM

Q: And the IC50 (Homo sapiens, A2780, 72 h, A2780 cell line (ovary))?
A: 2.4 nM

Q: What about the IC50 (Homo sapiens, A-375, 72 h, A375 cell line (skin)) of the same compound?
A: 2.3 nM

Q: And the IC50 (Homo sapiens, A-431, 72 h, A431 cell line (skin))?
A: 2.3 nM

Q: And the IC50 (Homo sapiens, ACHN, ACHN cell line (kidney))?
A: 1.5 nM

Q: What about the IC50 (Homo sapiens, ASPC1, 72 h, ASPC1 cell line (pancreas)) of the same compound?
A: 5.2 nM

Q: What about the IC50 (Homo sapiens, BT-20, 72 h, BT20 cell line (breast)) of the same compound?
A: 7 nM

Q: And the IC50 (Homo sapiens, BXPC-3, 72 h, BXPC3 cell line (pancreas))?
A: 2.4 nM

Q: And the IC50 (Homo sapiens, C-33-A, C33A cell line (cervical))?
A: 4.4 nM

Q: And the IC50 (Homo sapiens, CAKI-1, 72 h, CAKI1 cell line (kidney))?
A: 2.7 nM

Q: What about the IC50 (Homo sapiens, COLO 205, 72 h, COLO205 cell line (colon)) of the same compound?
A: 20.2 nM

Q: What about the IC50 (Homo sapiens, COLO-678, 72 h, COLO678 cell line (colon)) of the same compound?
A: 5.3 nM

Q: What about the IC50 (Homo sapiens, Ca-Ski, CASKI cell line (cervical)) of the same compound?
A: 5.9 nM

Q: And the IC50 (Homo sapiens, Caco-2, 72 h, CACO2 cell line (colon))?
A: 7 nM

Q: What about the IC50 (Homo sapiens, Calu-6, 72 h, CALU6 cell line (lung)) of the same compound?
A: 6.1 nM

Q: And the IC50 (Homo sapiens, DLD-1, 72 h, DLD1 cell line (colon))?
A: 5.3 nM

Q: And the IC50 (Homo sapiens, DU-145, 72 h, DU145 cell line (prostate))?
A: 2.1 nM

Q: And the IC50 (Homo sapiens, EFO-21, 72 h, EFO21 cell line (ovary))?
A: 1.9 nM

Q: And the IC50 (Homo sapiens, EJ-28, 72 h, EJ28 cell line (bladder))?
A: 2.1 nM

Q: What about the IC50 (Homo sapiens, Granta-519, 72 h, GRANTA-519 cell line (hematological)) of the same compound?
A: 0.5 nM

Q: What about the IC50 (Homo sapiens, HCT-15, 72 h, HCT15 cell line (colon)) of the same compound?
A: 4.7 nM

Q: And the IC50 (Homo sapiens, HCT-116, 72 h, HCT116 cell line (colon))?
A: 2 nM

Q: And the IC50 (Homo sapiens, HEK293, 72 h, HEK293 cell line (kidney))?
A: 20.9 nM

Q: And the IC50 (Homo sapiens, HL-60, 72 h, HL-60 cell line (hematological))?
A: 2.2 nM

Q: And the IC50 (Homo sapiens, HT-29, 72 h, HT29 cell line (colon))?
A: 3.5 nM

Q: What about the IC50 (Homo sapiens, HT-1080, 72 h, HT1080 cell line (connective tissue)) of the same compound?
A: 1.7 nM

Q: And the IC50 (Homo sapiens, HeLa, HELA cell line (cervical))?
A: 6 nM

Q: And the IC50 (Homo sapiens, HepG2, 72 h, HEPG2 cell line (liver))?
A: 2 nM

Q: And the IC50 (Homo sapiens, IGROV-1, 72 h, IGROV1 cell line (ovary))?
A: 4.8 nM

Q: What about the IC50 (Homo sapiens, IMR-90, 72 h, IMR.90 cell line) of the same compound?
A: 2.6 nM

Q: And the IC50 (Homo sapiens, J82, 72 h, J82 cell line (bladder))?
A: 5.1 nM

Q: And the IC50 (Homo sapiens, JEG-3, 72 h, JEG3 cell line (placenta))?
A: 5.3 nM

Q: And the IC50 (Homo sapiens, JIMT-1, 72 h, JIMT1 cell line (breast))?
A: 0.9 nM

Q: And the IC50 (Homo sapiens, K562, 72 h, K-562 cell line (hematological))?
A: 14.2 nM

Q: And the IC50 (Homo sapiens, Kasumi 1, 72 h, KASUMI-1 cell line (hematological))?
A: 3.5 nM

Q: What about the IC50 (Homo sapiens, L-363, 72 h, L-363 cell line (hematological)) of the same compound?
A: 3.4 nM

Q: And the IC50 (Homo sapiens, LoVo, LOVO cell line (colon))?
A: 2.3 nM

Q: What about the IC50 (Homo sapiens, MCF7, 72 h, MCF7 cell line (breast)) of the same compound?
A: 4.1 nM

Q: What about the IC50 (Homo sapiens, MDA-MB-231, 72 h, MDAMB231 cell line (breast)) of the same compound?
A: 0.9 nM

Q: What about the IC50 (Homo sapiens, MDA-MB-435, 72 h, MDAMB435 cell line (skin)) of the same compound?
A: 2.8 nM

Q: What about the IC50 (Homo sapiens, MDA-MB-436, 72 h, MDAMB436 cell line (breast)) of the same compound?
A: 1.8 nM

Q: And the IC50 (Homo sapiens, MDA-MB-468, 72 h, MDAMB468 cell line (breast))?
A: 1.9 nM

Q: What about the IC50 (Homo sapiens, MG-63, 72 h, MG63 cell line (bone)) of the same compound?
A: 4.8 nM

Q: And the IC50 (Homo sapiens, MHH-ES-1, 72 h, MHHES1 cell line (bone))?
A: 2 nM

Q: And the IC50 (Homo sapiens, MIA PaCa-2, 72 h, MIAPACA2 cell line (pancreas))?
A: 6.8 nM

Q: And the IC50 (Homo sapiens, MINO, MINO cell line (hematological))?
A: 0.3 nM

Q: What about the IC50 (Homo sapiens, MV4-11, 72 h, MV4-11 cell line (hematological)) of the same compound?
A: 1.1 nM

Q: What about the IC50 (Homo sapiens, NCI-H23, 72 h, NCI-H23 cell line (lung)) of the same compound?
A: 1.1 nM

Q: What about the IC50 (Homo sapiens, NCI-H82, 72 h, NCIH82 cell line (lung)) of the same compound?
A: 7.6 nM

Q: And the IC50 (Homo sapiens, NCI-H292, 72 h, NCIH292 cell line (lung))?
A: 4.4 nM

Q: What about the IC50 (Homo sapiens, NCI-H460, 72 h, NCIH460 cell line (lung)) of the same compound?
A: 5 nM

Q: And the IC50 (Homo sapiens, OVCAR-3, 72 h, OVCAR3 cell line (ovary))?
A: 3.1 nM

Q: What about the IC50 (Homo sapiens, OVCAR-4, 72 h, OVCAR4 cell line (ovary)) of the same compound?
A: 4.9 nM

Q: And the IC50 (Homo sapiens, PANC-1, 72 h, PANC1 cell line (pancreas))?
A: 9.7 nM

Q: What about the IC50 (Homo sapiens, PC-3, 72 h, PC3 cell line (prostate)) of the same compound?
A: 2.6 nM

Q: And the IC50 (Homo sapiens, PLC-PRF-5, 72 h, PLCPRF5 cell line (liver))?
A: 9.2 nM

Q: And the IC50 (Homo sapiens, Panc1005, 72 h, PANC1005 cell line (pancreas))?
A: 7.9 nM

Q: What about the IC50 (Homo sapiens, RD, RD cell line (muscle)) of the same compound?
A: 2.3 nM

Q: And the IC50 (Homo sapiens, Ramos, RAMOS cell line (hematological))?
A: 0.6 nM

Q: And the IC50 (Homo sapiens, SAOS-2, 72 h, SAOS2 cell line (bone))?
A: 0.5 nM

Q: And the IC50 (Homo sapiens, SF-268, 72 h, SF268 cell line (brain))?
A: 4.1 nM

Q: What about the IC50 (Homo sapiens, SF-295, 72 h, SF295 cell line (brain)) of the same compound?
A: 3.3 nM

Q: What about the IC50 (Homo sapiens, SK-BR-3, 72 h, SKBR3 cell line (breast)) of the same compound?
A: 0.6 nM

Q: What about the IC50 (Homo sapiens, SK-HEP1, 72 h, SKHEP1 cell line (liver)) of the same compound?
A: 4.7 nM

Q: And the IC50 (Homo sapiens, SK-LMS-1, 72 h, SKLMS1 cell line (uterus))?
A: 4.1 nM

Q: What about the IC50 (Homo sapiens, SK-MEL-28, 72 h, SKMEL28 cell line (skin)) of the same compound?
A: 4.3 nM

Q: What about the IC50 (Homo sapiens, SK-N-AS, SKNAS cell line (brain)) of the same compound?
A: 3.6 nM

Q: What about the IC50 (Homo sapiens, SK-N-SH, SKNSH cell line (brain)) of the same compound?
A: 3.3 nM

Q: What about the IC50 (Homo sapiens, SK-OV-3, 72 h, SKOV3 cell line (ovary)) of the same compound?
A: 23.7 nM

Q: What about the IC50 (Homo sapiens, SNB-75, 72 h, SNB75 cell line (brain)) of the same compound?
A: 5.3 nM

Q: And the IC50 (Homo sapiens, SU-DHL10, 72 h, SU-DHL-10 cell line (hematological))?
A: 4.1 nM

Q: What about the IC50 (Homo sapiens, SU-DHL-6, 72 h, SU-DHL-6 cell line (hematological)) of the same compound?
A: 6.8 nM

Q: And the IC50 (Homo sapiens, SW-620, 72 h, SW620 cell line (colon))?
A: 3 nM

Q: What about the IC50 (Homo sapiens, T-24, 72 h, T24 cell line (bladder)) of the same compound?
A: 1.4 nM

Q: What about the IC50 (Homo sapiens, TE-671, 72 h, TE671 cell line (muscle)) of the same compound?
A: 8.3 nM

Q: And the IC50 (Homo sapiens, THP-1, 72 h, THP-1 cell line (hematological))?
A: 1.1 nM

Q: And the IC50 (Homo sapiens, U2OS, U2OS cell line (bone))?
A: 5.7 nM

Q: What about the IC50 (Homo sapiens, U-87 MG, U87MG cell line (brain)) of the same compound?
A: 1.5 nM

Q: What about the IC50 (Homo sapiens, UMUC3, 72 h, UMUC3 cell line (bladder)) of the same compound?
A: 4.3 nM

Q: And the IC50 (Homo sapiens, UO-31, 72 h, UO31 cell line (kidney))?
A: 3.7 nM

Q: And the IC50 (Homo sapiens, WSU-NHL, WSU-NHL cell line (hematological))?
A: 4.5 nM

Q: And the IC50 (MT-3, 72 h, MT3 cell line (breast))?
A: 0.9 nM

Q: What about the IC50 (NCI-H358M, NCIH358M cell line (lung)) of the same compound?
A: 3.5 nM

Q: What about the IC50 (PBMC, PBMC (hematological)) of the same compound?
A: 12300 nM

Q: And the IC50 (RD-ES, RDES cell line (bone))?
A: 3.7 nM

Q: What about the “cytotoxicity against a panel of cell lines (waterfall plot)” value (panel of cancer and non-cancer cell lines, figure legends FIG. 1-3) of the same compound?
A: indiscriminately cytotoxic
